Measurements: ChEMBL document CHEMBL1150064, “Scoparic acid A, a beta-glucuronidase inhibitor from Scoparia dulcis” (J Nat Prod, 1992)

T1: Beta-glucuronidase (Bos taurus, UniProt A3KMY8)
T1 sequence (A3KMY8 whole entry): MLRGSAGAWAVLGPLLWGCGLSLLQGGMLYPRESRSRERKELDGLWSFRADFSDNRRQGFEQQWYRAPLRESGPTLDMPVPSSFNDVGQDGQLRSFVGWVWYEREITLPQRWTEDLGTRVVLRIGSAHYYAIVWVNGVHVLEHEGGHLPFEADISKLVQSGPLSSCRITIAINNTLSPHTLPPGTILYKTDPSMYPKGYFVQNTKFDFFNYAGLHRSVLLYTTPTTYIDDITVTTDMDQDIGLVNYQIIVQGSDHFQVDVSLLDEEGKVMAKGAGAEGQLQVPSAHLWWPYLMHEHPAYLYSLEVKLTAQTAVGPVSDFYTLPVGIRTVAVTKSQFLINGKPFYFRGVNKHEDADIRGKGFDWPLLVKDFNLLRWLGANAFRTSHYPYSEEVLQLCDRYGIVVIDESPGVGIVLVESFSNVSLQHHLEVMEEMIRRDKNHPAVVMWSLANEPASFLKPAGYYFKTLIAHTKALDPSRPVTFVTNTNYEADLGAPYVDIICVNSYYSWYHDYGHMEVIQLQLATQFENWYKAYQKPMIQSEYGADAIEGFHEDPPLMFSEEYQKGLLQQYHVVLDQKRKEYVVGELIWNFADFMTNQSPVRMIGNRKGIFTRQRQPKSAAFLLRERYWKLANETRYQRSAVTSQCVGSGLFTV

T2: Beta-glucuronidase (Bos taurus) (UniProt A3KMY8)
T2 sequence (whole entry): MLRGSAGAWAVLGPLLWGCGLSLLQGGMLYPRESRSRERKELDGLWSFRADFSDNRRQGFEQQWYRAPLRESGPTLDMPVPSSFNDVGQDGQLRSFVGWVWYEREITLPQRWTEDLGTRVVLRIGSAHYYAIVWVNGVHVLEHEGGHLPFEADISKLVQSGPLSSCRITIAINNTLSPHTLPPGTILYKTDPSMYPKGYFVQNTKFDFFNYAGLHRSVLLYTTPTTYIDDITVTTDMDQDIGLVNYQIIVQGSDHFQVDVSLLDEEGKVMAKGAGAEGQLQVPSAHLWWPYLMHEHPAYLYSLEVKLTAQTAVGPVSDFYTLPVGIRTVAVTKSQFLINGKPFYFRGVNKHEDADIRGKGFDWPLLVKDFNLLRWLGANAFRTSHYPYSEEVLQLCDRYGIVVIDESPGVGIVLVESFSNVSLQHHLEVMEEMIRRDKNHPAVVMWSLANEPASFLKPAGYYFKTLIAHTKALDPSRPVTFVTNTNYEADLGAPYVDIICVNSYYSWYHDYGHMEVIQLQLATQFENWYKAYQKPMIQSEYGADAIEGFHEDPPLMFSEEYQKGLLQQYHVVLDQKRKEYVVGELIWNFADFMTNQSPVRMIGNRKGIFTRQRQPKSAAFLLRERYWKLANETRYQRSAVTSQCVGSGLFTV


Experiments:
Beta-glucuronidase = target: T1, Beta-glucuronidase; assay: Inhibition of bovine beta-glucuronidase
[1] = target: T2, Beta-glucuronidase (Bos taurus); assay: Inhibition of bovine beta-glucuroniase assessed as decrease in enzyme inhibition in presence of BSA; details: concentration not given here
[2] = substrate: C=C1C[C@@H](OC(=O)c2ccccc2)[C@@H]2[C@](C)(CCC[C@@]2(C)C(=O)O)[C@@H]1CC/C(C)=C/CO; assay: Activity at bovine beta-glucuroniase by Lineweaver-Burke plot; details: Bos taurus

Row | Molecule | IC50 (Beta-glucuronidase) [µM] | inhibition [1] [%] | Km [2] [mM]
1 | C=C(C=O)CC[C@@H]1C(=C)C[C@@H](OC(=O)c2ccccc2)[C@@H]2[C@]1(C)CCC[C@@]2(C)C(=O)O [SCOPARIC ACID C] | 10 |  | 
2 | Beta-glucuronidase (Bos taurus), A3KMY8 (protein) MLRGSAGAWAVLGPLLWGCGLSLLQGGMLYPRESRSRERKELDGLWSFRADFSDNRRQGFEQQWYRAPLRESGPTLDMPVPSSFNDVGQDGQLRSFVGWVWYEREITLPQRWTEDLGTRVVLRIGSAHYYAIVWVNGVHVLEHEGGHLPFEADISKLVQSGPLSSCRITIAINNTLSPHTLPPGTILYKTDPSMYPKGYFVQNTKFDFFNYAGLHRSVLLYTTPTTYIDDITVTTDMDQDIGLVNYQIIVQGSDHFQVDVSLLDEEGKVMAKGAGAEGQLQVPSAHLWWPYLMHEHPAYLYSLEVKLTAQTAVGPVSDFYTLPVGIRTVAVTKSQFLINGKPFYFRGVNKHEDADIRGKGFDWPLLVKDFNLLRWLGANAFRTSHYPYSEEVLQLCDRYGIVVIDESPGVGIVLVESFSNVSLQHHLEVMEEMIRRDKNHPAVVMWSLANEPASFLKPAGYYFKTLIAHTKALDPSRPVTFVTNTNYEADLGAPYVDIICVNSYYSWYHDYGHMEVIQLQLATQFENWYKAYQKPMIQSEYGADAIEGFHEDPPLMFSEEYQKGLLQQYHVVLDQKRKEYVVGELIWNFADFMTNQSPVRMIGNRKGIFTRQRQPKSAAFLLRERYWKLANETRYQRSAVTSQCVGSGLFTV |  |  | 14.3

Now from value to molecule, other results behind:

Row | IC50 (Beta-glucuronidase) [µM] | inhibition [1] [%] | Molecule | Km [2] [mM]
3 | 6.8 | 5 | C=C1C[C@@H](OC(=O)c2ccccc2)[C@@H]2[C@](C)(CCC[C@@]2(C)C(=O)O)[C@@H]1CC/C(C)=C/CO [SCOPARIC ACID A] | 
4 | > 100 |  | C=C1C[C@@H](OC(=O)c2ccccc2)[C@@H]2[C@](C)(CCC[C@@]2(C)C(=O)O)[C@@H]1CCC(C)=O [SCOPARIC ACID B] | 
